Values belong to the compound of their own block, whether it stands above or below them.
Key:
[1] = target: T1, human recombinant HDAC1 (Homo sapiens, UniProt Q13547); assay: HDAC1 enzyme activity inhibition assay (in vitro, fluorimetric); assay type: biochemical; conditions: human recombinant HDAC1, fluorimetric kit, 30° C. 60 minutes
T1 construct: purchased Enzo Life Science BML-SE456
Method: (§1) In order to examine the HDAC6 selectivity of the compounds of formula 1 of the present invention by HDAC1 and HDAC6 enzymatic activity inhibition assays, an experiment was performed using a conventional substance as a control.
(§2) HDAC enzyme activity was measured using a HDAC Fluorimetric Drug Discovery Kit (BML-AK511, 516, Enzo Life Science). For the HDAC1 enzyme activity test, human recombinant HDAC1 (BML-SE456) was used as an enzyme source, and Fluor de Lys®-“SIRT1 (BNL-KI177) was used as a substrate. A 5-fold dilution of the compound was seeded into a 96-well plate, and then 0.3 μg of the enzyme and 10 μM of the substrate were added to each well of the plate and allowed to react at 30° C. for 60 minutes. Then, Fluor de Lys® Developer II (BML-KI176) was added thereto and allowed to react for 30 minutes, after which the fluorescence value (Ex 360, Em 460) was measured using a multi-plate reader (Flexstation 3, Molecular Device). The HDAC6 enzyme was tested using human recombinant HDAC6 (382180) (Calbiochem) according to the same protocol as the HDAC1 enzyme activity test method. Based on the resulting values, each IC50 value was calculated using GraphPad Prism4.0 program.

[2] = target: T2, human recombinant HDAC6 (Homo sapiens, UniProt Q9UBN7); assay: HDAC6 enzyme activity inhibition assay (in vitro, fluorimetric); assay type: biochemical; conditions: for HDAC6 selectivity (fold): HDAC6 selectivity over HDAC1; for IC50: human recombinant HDAC6, fluorimetric kit, same protocol as HDAC1
T2 construct: purchased Calbiochem 382180
T2 sequence (Q9UBN7 1-1215): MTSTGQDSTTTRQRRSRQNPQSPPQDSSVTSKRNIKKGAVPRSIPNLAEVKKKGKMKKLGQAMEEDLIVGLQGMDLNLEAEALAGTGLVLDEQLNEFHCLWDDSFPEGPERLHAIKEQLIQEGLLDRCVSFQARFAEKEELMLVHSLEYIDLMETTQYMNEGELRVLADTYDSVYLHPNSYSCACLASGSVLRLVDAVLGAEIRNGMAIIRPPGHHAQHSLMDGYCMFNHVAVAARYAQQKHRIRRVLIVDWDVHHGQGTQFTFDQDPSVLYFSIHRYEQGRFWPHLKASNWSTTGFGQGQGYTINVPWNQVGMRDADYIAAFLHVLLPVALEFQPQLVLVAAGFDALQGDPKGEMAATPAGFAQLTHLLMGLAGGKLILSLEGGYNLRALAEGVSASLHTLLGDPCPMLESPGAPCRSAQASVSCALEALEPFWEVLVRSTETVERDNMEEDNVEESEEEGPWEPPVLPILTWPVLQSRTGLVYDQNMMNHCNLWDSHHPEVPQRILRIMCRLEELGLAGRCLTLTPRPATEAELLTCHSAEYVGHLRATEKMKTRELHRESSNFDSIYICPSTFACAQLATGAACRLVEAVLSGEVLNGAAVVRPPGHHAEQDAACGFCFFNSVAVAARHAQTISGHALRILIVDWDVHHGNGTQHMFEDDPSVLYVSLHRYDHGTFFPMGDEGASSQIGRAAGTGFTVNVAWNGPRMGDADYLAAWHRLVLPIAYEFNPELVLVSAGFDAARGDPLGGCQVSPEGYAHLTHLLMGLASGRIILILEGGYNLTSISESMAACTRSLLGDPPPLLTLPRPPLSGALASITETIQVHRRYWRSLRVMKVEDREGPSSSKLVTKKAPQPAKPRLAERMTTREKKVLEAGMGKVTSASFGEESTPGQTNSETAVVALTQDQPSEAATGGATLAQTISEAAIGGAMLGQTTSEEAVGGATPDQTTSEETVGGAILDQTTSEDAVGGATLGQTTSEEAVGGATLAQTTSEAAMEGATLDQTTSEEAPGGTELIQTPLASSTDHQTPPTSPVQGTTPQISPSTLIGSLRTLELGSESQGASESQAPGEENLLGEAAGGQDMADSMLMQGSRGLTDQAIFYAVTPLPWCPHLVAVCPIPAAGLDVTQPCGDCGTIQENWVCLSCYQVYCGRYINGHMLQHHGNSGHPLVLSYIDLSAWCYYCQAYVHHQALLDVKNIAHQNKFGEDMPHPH
Method: as §1, §2

T1 sequence (Q13547 whole entry): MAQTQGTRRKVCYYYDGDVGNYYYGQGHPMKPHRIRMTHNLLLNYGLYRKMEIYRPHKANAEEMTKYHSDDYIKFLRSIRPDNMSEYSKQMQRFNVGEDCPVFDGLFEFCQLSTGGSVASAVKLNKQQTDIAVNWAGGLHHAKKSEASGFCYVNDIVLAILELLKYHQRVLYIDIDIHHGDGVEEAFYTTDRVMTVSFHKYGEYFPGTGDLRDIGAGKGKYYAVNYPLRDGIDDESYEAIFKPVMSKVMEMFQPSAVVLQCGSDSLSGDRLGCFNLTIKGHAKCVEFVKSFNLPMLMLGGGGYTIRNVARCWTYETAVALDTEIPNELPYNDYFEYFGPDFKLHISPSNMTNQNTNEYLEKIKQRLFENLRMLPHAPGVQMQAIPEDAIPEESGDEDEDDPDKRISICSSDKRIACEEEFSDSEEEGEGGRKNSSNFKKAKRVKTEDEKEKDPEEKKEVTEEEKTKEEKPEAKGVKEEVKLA

SMILES: CCN(CC)Cc1cccc(C(=O)N2C[C@@H](C)N(Cc3ccc(/C=C/C(=O)NO)cc3)[C@@H](C)C2)c1 [Compound 487, (E)-3-(4-(((2S,6R)-4-(3-((diethylamino)methyl)benzoyl)-2,6-dimethylpiperazin-1-yl)methyl)phenyl)-N-hydroxyacrylamide]
IC50 [1]: 1100 nM
HDAC6 selectivity (fold) [2]: 4 fold
IC50 [2]: 296 nM

SMILES: C[C@@H]1CN(Cc2ccc(C(=O)NO)cc2)C[C@H](C)N1C(=O)c1ccccc1Cl [Compound 120, 4-(((3R,5S)-4-(2-chlorobenzoyl)-3,5-dimethylpiperazin-1-yl)methyl)-N-hydroxybenzamide]
IC50 [1]: 5500 nM
HDAC6 selectivity (fold) [2]: 304 fold
IC50 [2]: 18 nM

SMILES: C[C@@H]1CN(Cc2ccc(C(=O)NO)cc2)C[C@H](C)N1C(=O)c1ccccc1C1=CCOCC1 [Compound 326, 4-(((3R,5S)-4-(2-(3,6-dihydro-2H-pyran-4-yl)benzoyl)-3,5-dimethylpiperazin-1-yl)methyl)-N-hydroxybenzamide]
IC50 [1]: > 10000 nM
HDAC6 selectivity (fold) [2]: >172 fold
IC50 [2]: 58 nM

SMILES: C[C@@H]1CN(Cc2ccc(C(=O)NO)cc2)C[C@H](C)N1C(=O)c1ccc(-c2ccco2)cc1 [Compound 340, 4-(((3R,5S)-4-(4-(furan-2-yl)benzoyl)-3,5-dimethylpiperazin-1-yl)methyl)-N-hydroxybenzamide]
IC50 [1]: 1600 nM
HDAC6 selectivity (fold) [2]: 3 fold
IC50 [2]: 606 nM

SMILES: C[C@@H]1CN(Cc2ccc(C(=O)NO)cc2)C[C@H](C)N1S(=O)(=O)c1ccccc1 [Compound 100, 4-(((3R,5S)-3,5-dimethyl-4-(phenylsulfonyl)piperazin-1-yl)methyl)-N-hydroxybenzamide]
IC50 [1]: > 10000 nM
HDAC6 selectivity (fold) [2]: >105 fold
IC50 [2]: 95 nM

SMILES: CC(C)CC(=O)N1[C@H](C)CN(Cc2ccc(C(=O)NO)cc2)C[C@@H]1C [Compound 297, 4-(((3R,5S)-3,5-dimethyl-4-(3-methylbutanoyl)piperazin-1-yl)methyl)-N-hydroxybenzamide]
IC50 [1]: 5600 nM
HDAC6 selectivity (fold) [2]: 62 fold
IC50 [2]: 90 nM

SMILES: C[C@@H]1CN(S(=O)(=O)c2cccnc2)C[C@H](C)N1Cc1ccc(C(=O)NO)cc1 [Compound 113, 4-(((2S,6R)-2,6-dimethyl-4-(pyridin-3-ylsulfonyl)piperazin-1-yl)methyl)-N-hydroxybenzamide]
IC50 [1]: 2800 nM
HDAC6 selectivity (fold) [2]: 27 fold
IC50 [2]: 104 nM

SMILES: C[C@@H]1CN(Cc2ccc(C(=O)NO)cc2)C[C@H](C)N1C(=O)c1ccccc1-c1cccnc1 [Compound 286, 4-(((3R,5S)-3,5-dimethyl-4-(2-(pyridin-3-yl)benzoyl)piperazin-1-yl)methyl)-N-hydroxybenzamide]
IC50 [1]: 13100 nM
HDAC6 selectivity (fold) [2]: 81 fold
IC50 [2]: 161 nM

SMILES: C[C@@H]1CN(Cc2ccc(C(=O)NO)cc2)C[C@H](C)N1C(=O)c1ccccc1-c1ccncc1 [Compound 285, 4-(((3R,5S)-3,5-dimethyl-4-(2-(pyridin-4-yl)benzoyl)piperazin-1-yl)methyl)-N-hydroxybenzamide]
IC50 [1]: 7000 nM
HDAC6 selectivity (fold) [2]: 75 fold
IC50 [2]: 93 nM

The remaining lines, values ahead:

IC50 [1]: 2500 nM
HDAC6 selectivity (fold) [2]: 6 fold
IC50 [2]: 400 nM
SMILES: C[C@@H]1CN(C(=O)c2cccc(C3=CCOCC3)c2)C[C@H](C)N1Cc1ccc(C(=O)NO)cc1 [Compound 259, 4-(((2S,6R)-4-(3-(3,6-dihydro-2H-pyran-4-yl)benzoyl)-2,6-dimethylpiperazin-1-yl)methyl)-N-hydroxybenzamide]

IC50 [1]: 2900 nM
HDAC6 selectivity (fold) [2]: 3 fold
IC50 [2]: 1110 nM
SMILES: C[C@@H]1CN(Cc2ccc(-c3ccco3)cc2)C[C@H](C)N1Cc1ccc(C(=O)NO)cc1 [Compound 303, 4-(((2S,6R)-4-(4-(furan-2-yl)benzyl)-2,6-dimethylpiperazin-1-yl)methyl)-N-hydroxybenzamide]

IC50 [1]: > 10000 nM
HDAC6 selectivity (fold) [2]: >102 fold
IC50 [2]: 98 nM
SMILES: C[C@@H]1CN(Cc2ccc(C(=O)NO)cc2)C[C@H](C)N1Cc1cccc(CN2CC[C@@H](F)C2)c1 [Compound 383, 4-(((3R,5S)-4-(3-(((R)-3-fluoropyrrolidin-1-yl)methyl)benzyl)-3,5-dimethylpiperazin-1-yl)methyl)-N-hydroxybenzamide]

IC50 [1]: > 10000 nM
HDAC6 selectivity (fold) [2]: >13.3 fold
IC50 [2]: 754 nM
SMILES: C[C@@H]1CN(Cc2ccc(C(=O)NO)nc2)C[C@H](C)N1Cc1cccc(CN2CCOCC2)c1 [Compound 609, 5-(((3R,5S)-3,5-dimethyl-4-(3-(morpholinomethyl)benzyl)piperazin-1-yl)methyl)-N-hydroxypicolinamide]

IC50 [1]: 8500 nM
HDAC6 selectivity (fold) [2]: 96 fold
IC50 [2]: 89 nM
SMILES: C[C@@H]1CN(Cc2ccc(C(=O)NO)cc2)C[C@@H](C)N1Cc1ccccc1 [Compound 248, 4-(((3R,5R)-4-benzyl-3,5-dimethylpiperazin-1-yl)methyl)-N-hydroxybenzamide]

IC50 [1]: 3800 nM
HDAC6 selectivity (fold) [2]: 25 fold
IC50 [2]: 149 nM
SMILES: C[C@@H]1CN(Cc2ccc(C(=O)NO)cc2)C[C@H](C)N1C(=O)c1ccc(CN2CCCCC2)cc1 [Compound 459, 4-(((3R,5S)-3,5-dimethyl-4-(4-(piperidin-1-ylmethyl)benzoyl)piperazin-1-yl)methyl)-N-hydroxybenzamide]

HDAC6 selectivity (fold) [2]: >23 fold
IC50 [2]: 429 nM
SMILES: C[C@@H]1CN(Cc2ccccc2)C[C@H](C)N1Cc1ccc(CC(=O)NO)cc1 [Compound 176, 2-(4-(((2S,6R)-4-benzyl-2,6-dimethylpiperazin-1-yl)methyl)phenyl)-N-hydroxyacetamide]

HDAC6 selectivity (fold) [2]: >40 fold
IC50 [2]: 249 nM
SMILES: C[C@@H]1CN(Cc2ccc(C(=O)NO)cc2)C[C@H](C)N1CCc1ccccc1 [Compound 184, 4-(((3R,5S)-3,5-dimethyl-4-phenethylpiperazin-1-yl)methyl)-N-hydroxybenzamide]

HDAC6 selectivity (fold) [2]: 13 fold
IC50 [2]: 731 nM
SMILES: C[C@@H]1CN(Cc2ccc(C(=O)NO)cc2)C[C@H](C)N1Cc1ccccc1C1=CCC(C)(C)CC1 [Compound 331, 4-(((3R,5S)-4-((4′,4′-dimethyl-2′,3′,4′,5′-tetrahydro-[1,1′-biphenyl]-2-yl)methyl)-3,5-dimethylpiperazin-1-yl)methyl)-N-hydroxybenzamide]

HDAC6 selectivity (fold) [2]: >256 fold
IC50 [2]: 39 nM
SMILES: C[C@@H]1CN(Cc2ccc(C(=O)NO)c(F)c2)C[C@H](C)N1Cc1ccccc1 [Compound 171, 4-(((3R,5S)-4-benzyl-3,5-dimethylpiperazin-1-yl)methyl)-2-fluoro-N-hydroxybenzamide]

IC50 [2]: 44 nM
SMILES: CC(C)CCN1CCN(Cc2cccc(CN3[C@H](C)CN(Cc4ccc(C(=O)NO)cc4)C[C@@H]3C)c2)CC1 [Compound 454, N-hydroxy-4-(((3R,5S)-4-(3-((4-isopentylpiperazin-1-yl)methyl)benzyl)-3,5-dimethylpiperazin-1-yl)methyl)benzamide]

HDAC6 selectivity (fold) [2]: 48 fold
IC50 [2]: 210 nM
SMILES: C[C@@H]1CN(Cc2ccc3oc(C(=O)NO)cc3c2)C[C@H](C)N1Cc1ccccc1 [Compound 571, 5-(((3R,5S)-4-benzyl-3,5-dimethylpiperazin-1-yl)methyl)-N-hydroxybenzofuran-2-carboxamide]

From patent US10287255B2, “Compounds as histone deacetylase 6 inhibitors and pharmaceutical compositions comprising the same” (CHONG KUN DANG PHARMACEUTICAL CORP., priority 2014, dated 2019)
